From patent US11352340B2, “Pyridine and pyridimine compounds as PI3K-gamma inhibitors” (Incyte Corporation, priority 2016, dated 2022) come the findings set out here.

Experiment [1] concerns the target PI3Kγ (p110γ) Recombinant Human Protein (Homo sapiens (Human), UniProt P48736). Nature of the experiment: PI3K-γ Scintillation Proximity Assay. It counts as biochemical. Conditions: read-out: PI3K-gamma SPA IC50. The gist of the method: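 Radiometric SPA: reaction at room temperature for 120 min using 2 μM ATP with [γ-33P]ATP tracer, 20 μM PIP2 substrate and 13 nM human PI3Kγ (MOPS pH 6.7, MgCl2, DTT, CHAPS; 2% DMSO). EDTA quench with WGA beads, scintillation count, and IC50 fit of percent-of-control activity.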

In experiment [2] the target is PI3Kδ (p110δ/p85α) Recombinant Human Protein (Homo sapiens (Human), UniProt O00329). Nature of the experiment: PI3Kδ Scintillation Proximity Assay. It counts as biochemical. To be noted: read-out: PI3K-delta SPA IC50. The gist of the method: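 IC50 was fitted to percent solvent-control activity from SPA scintillation counts after WGA bead capture of 33P-labelled lipid product. Reaction: 120 min, room temperature, 3.4 nM p110δ/p85α, 20 μM PIP2, 2 μM ATP with tracer, MOPS pH 6.7 buffer containing MgCl2, DTT, CHAPS, 2% DMSO.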
Chain of PI3Kδ (p110δ/p85α) Recombinant Human Protein (O00329 whole entry): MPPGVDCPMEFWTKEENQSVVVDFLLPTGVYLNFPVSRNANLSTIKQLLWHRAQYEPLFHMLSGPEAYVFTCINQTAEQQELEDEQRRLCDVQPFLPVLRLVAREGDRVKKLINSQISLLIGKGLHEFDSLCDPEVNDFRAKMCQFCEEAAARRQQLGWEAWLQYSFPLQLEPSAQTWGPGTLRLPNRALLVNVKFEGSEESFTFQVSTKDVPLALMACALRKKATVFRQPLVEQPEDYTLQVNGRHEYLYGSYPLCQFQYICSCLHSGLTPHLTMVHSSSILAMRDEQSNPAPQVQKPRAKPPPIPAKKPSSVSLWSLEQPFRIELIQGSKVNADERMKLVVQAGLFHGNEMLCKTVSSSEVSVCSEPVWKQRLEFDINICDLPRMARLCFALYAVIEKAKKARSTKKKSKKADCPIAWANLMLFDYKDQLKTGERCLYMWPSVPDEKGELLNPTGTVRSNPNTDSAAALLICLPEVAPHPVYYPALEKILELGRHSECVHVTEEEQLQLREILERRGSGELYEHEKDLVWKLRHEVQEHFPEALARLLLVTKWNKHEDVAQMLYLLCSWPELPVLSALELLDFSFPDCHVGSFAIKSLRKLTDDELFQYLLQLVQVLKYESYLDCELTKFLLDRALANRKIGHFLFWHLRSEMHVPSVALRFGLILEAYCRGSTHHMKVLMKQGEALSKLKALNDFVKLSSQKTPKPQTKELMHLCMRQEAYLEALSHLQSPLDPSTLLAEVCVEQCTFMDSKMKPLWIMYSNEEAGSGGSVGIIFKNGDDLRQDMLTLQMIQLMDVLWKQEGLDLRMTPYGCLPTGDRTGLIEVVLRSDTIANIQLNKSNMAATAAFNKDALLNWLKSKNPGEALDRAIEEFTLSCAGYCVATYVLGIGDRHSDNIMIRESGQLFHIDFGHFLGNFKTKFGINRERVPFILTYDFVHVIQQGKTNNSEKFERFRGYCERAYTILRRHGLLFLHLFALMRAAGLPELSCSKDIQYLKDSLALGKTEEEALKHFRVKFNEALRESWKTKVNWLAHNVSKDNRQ
Chain of PI3Kδ (p110δ/p85α) Recombinant Human Protein (P27986 whole entry partner): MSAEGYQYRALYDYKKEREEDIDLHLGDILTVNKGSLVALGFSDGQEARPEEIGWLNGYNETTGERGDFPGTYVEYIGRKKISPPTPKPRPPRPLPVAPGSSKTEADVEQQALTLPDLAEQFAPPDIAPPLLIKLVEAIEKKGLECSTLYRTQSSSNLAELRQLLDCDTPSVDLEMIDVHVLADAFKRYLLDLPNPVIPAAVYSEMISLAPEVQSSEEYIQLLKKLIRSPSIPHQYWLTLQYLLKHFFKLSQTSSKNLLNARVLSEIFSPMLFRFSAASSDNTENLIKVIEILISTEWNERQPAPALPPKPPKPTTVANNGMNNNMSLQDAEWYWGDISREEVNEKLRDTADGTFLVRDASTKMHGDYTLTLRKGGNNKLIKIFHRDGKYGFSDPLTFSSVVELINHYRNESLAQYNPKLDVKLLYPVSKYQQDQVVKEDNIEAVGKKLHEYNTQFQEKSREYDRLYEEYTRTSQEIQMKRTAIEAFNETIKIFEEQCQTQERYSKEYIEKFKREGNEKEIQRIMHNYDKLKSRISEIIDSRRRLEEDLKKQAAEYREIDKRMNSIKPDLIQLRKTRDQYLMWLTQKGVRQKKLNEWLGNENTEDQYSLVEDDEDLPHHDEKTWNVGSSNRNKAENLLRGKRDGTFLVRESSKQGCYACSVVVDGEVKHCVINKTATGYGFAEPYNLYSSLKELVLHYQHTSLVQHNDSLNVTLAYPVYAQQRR
A general note: Scintillation proximity formats need no separation of bound from free tracer.

Counter-ions that a name gives are not always drawn.

Chain of PI3Kγ (p110γ) Recombinant Human Protein (P48736 whole entry): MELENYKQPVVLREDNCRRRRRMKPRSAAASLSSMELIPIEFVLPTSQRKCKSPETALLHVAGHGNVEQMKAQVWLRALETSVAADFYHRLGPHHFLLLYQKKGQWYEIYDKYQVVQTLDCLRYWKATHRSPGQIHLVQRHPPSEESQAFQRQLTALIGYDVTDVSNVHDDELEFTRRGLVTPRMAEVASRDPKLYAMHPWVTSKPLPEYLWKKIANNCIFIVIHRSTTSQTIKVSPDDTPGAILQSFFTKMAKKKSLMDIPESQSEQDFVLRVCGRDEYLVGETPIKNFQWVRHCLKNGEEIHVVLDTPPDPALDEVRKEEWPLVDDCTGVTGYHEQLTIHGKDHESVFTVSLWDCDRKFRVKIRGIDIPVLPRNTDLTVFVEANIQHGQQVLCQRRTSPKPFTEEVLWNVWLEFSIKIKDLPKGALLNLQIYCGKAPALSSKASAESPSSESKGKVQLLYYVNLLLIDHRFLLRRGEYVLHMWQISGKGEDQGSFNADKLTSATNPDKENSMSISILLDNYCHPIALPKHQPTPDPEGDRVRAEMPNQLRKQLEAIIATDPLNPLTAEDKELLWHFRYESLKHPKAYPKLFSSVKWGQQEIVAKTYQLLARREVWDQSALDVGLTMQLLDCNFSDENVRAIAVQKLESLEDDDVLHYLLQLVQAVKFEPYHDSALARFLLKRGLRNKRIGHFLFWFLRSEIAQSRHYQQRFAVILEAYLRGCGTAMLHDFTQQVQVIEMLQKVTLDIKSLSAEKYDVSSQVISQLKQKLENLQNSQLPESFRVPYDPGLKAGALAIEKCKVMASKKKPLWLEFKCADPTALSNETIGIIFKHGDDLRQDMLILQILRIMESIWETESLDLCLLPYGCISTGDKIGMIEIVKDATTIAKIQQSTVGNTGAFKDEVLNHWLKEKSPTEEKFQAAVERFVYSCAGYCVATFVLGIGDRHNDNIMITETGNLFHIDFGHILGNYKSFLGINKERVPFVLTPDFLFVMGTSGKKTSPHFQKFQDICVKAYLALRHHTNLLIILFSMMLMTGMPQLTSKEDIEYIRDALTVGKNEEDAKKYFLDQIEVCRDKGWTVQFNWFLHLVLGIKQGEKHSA

For `Cc1nc(-c2cc(-c3cncc(C(=O)N4CCOCC4)c3)ccn2)[nH]c1C` [Example 148, (2′-(4,5-Dimethyl-1H-imidazol-2-yl)-3,4′-bipyridin-5-yl)(morpholino)methanone], the IC50 is at most 100 nM in experiment [1] and at most 500 nM in experiment [2].

With `Cc1nc(-c2cc(-c3cncc(C(=O)NCCCN(C)C)c3)ccn2)[nH]c1C` [Example 149, 2′-(4,5-Dimethyl-1H-imidazol-2-yl)-N-(3-(dimethylamino)propyl)-3,4′-bipyridine-5-carboxamide], the IC50 in experiment [1] is at most 100 nM; in experiment [2] it was over 500 nM.

Regarding `Cc1nc(-c2cc(-c3cncc(C(=O)N4CCN(C(N)=O)CC4)c3)ccn2)[nH]c1C` [Example 150, 4-(2′-(4,5-Dimethyl-1H-imidazol-2-yl)-3,4′-bipyridine-5-carbonyl)piperazine-1-carboxamide], the IC50 was at most 500 nM in experiment [1] and at most 100 nM in experiment [2].

Take `Cc1nc(-c2cc(-c3cncc(C(=O)NCC4CCOCC4)c3)ccn2)[nH]c1C` [Example 162, 2′-(4,5-Dimethyl-1H-imidazol-2-yl)-N-((tetrahydro-2H-pyran-4-yl)methyl)-3,4′-bipyridine-5-carboxamide trifluoroacetate salt]: the IC50 in experiment [1] and in experiment [2] was at most 500 nM in each case.

As for `Cc1nc(-c2cc(-c3cncc(C(=O)NCCC4CCOCC4)c3)ccn2)[nH]c1C` [Example 164, 2′-(4,5-Dimethyl-1H-imidazol-2-yl)-N-(2-(tetrahydro-2H-pyran-4-yl)ethyl)-3,4′-bipyridine-5-carboxamide trifluoroacetate salt], the IC50 was at most 500 nM in experiment [1] and at most 50 nM in experiment [2].

Take `COCCNC(=O)c1cncc(-c2ccnc(-c3nc(C)c(C)[nH]3)c2)c1` [Example 166, 2′-(4,5-Dimethyl-1H-imidazol-2-yl)-N-(2-methoxyethyl)-3,4′-bipyridine-5-carboxamide trifluoroacetate salt]: the IC50 in experiment [1] was at most 100 nM; in experiment [2], at most 50 nM.

With `Cc1nc(-c2cc(-c3cncc(C(=O)N4CC5(CCN(C)C5=O)C4)c3)ccn2)[nH]c1C` [Example 171, 2-(2′-(4,5-Dimethyl-1H-imidazol-2-yl)-3,4′-bipyridine-5-carbonyl)-6-methyl-2,6-diazaspiro[3.4]octan-5-one trifluoroacetate salt], the IC50 in experiment [1] and in experiment [2] was at most 100 nM in each case.

As to `Cc1nc(-c2cc(-c3cncc(C(=O)N[C@@H]4CCOC4)c3)ccn2)[nH]c1C` [Example 176, 2′-(4,5-Dimethyl-1H-imidazol-2-yl)-N-[(3R)-tetrahydrofuran-3-yl]-3,4′-bipyridine-5-carboxamide trifluoroacetate salt], the IC50 in experiment [1] was at most 100 nM; in experiment [2], at most 500 nM.

Take `Cc1nc(-c2cc(-c3cncc(C(=O)N4CCC(O)CC4)c3)ccn2)[nH]c1C` [Example 177, 1-{[2′-(4,5-Dimethyl-1H-imidazol-2-yl)-3,4′-bipyridin-5-yl]carbonyl}piperidin-4-ol]: the IC50 in experiment [1] and in experiment [2] was at most 100 nM each time.

On to `Cc1nc(-c2cc(-c3cncc(C(=O)N4CCC(Cc5ccccc5)CC4)c3)ccn2)[nH]c1C` [Example 189, 5-[(4-Benzylpiperidin-1-yl)carbonyl]-2′-(4,5-dimethyl-1H-imidazol-2-yl)-3,4′-bipyridine trifluoroacetate salt], for which the IC50 was at most 100 nM in experiment [1] and at most 50 nM in experiment [2].

For the compound `Cc1nc(-c2cc(-c3cncc(C(=O)N[C@@H](C)c4ccccc4)c3)ccn2)[nH]c1C` [Example 195, 2′-(4,5-Dimethyl-1H-imidazol-2-yl)-N-[(1S)-1-phenylethyl]-3,4′-bipyridine-5-carboxamide trifluoroacetate salt], the IC50 in experiment [1] and in experiment [2] was at most 500 nM throughout.

As to `Cc1nc(-c2cc(-c3cncc(C(=O)N4CCC(O)(Cc5ccccc5)CC4)c3)ccn2)[nH]c1C` [Example 196, 4-Benzyl-1-{[2′-(4,5-dimethyl-1H-imidazol-2-yl)-3,4′-bipyridin-5-yl]carbonyl}piperidin-4-ol trifluoroacetate salt], the IC50 is at most 500 nM in experiment [1] and at most 50 nM in experiment [2].

With `Cc1nc(-c2cc(-c3cncc(C(=O)N4CCCN(C)CC4)c3)ccn2)[nH]c1C` [Example 200, 2′-(4,5-Dimethyl-1H-imidazol-2-yl)-5-[(4-methyl-1,4-diazepan-1-yl)carbonyl]-3,4′-bipyridine], the IC50 in experiment [1] and in experiment [2] was at most 500 nM each time.

In the case of `COCCN(C)C(=O)c1cncc(-c2ccnc(-c3nc(C)c(C)[nH]3)c2)c1` [Example 204, 2′-(4,5-Dimethyl-1H-imidazol-2-yl)-N-(2-methoxyethyl)-N-methyl-3,4′-bipyridine-5-carboxamide trifluoroacetate salt], the IC50 is at most 100 nM in experiment [1] and at most 50 nM in experiment [2].

In the case of `Cc1nc(-c2cc(-c3cncc(C(=O)N(C)CCCO)c3)ccn2)[nH]c1C` [Example 209, 2′-(4,5-Dimethyl-1H-imidazol-2-yl)-N-(3-hydroxypropyl)-N-methyl-3,4′-bipyridine-5-carboxamide], the IC50 in experiment [1] and in experiment [2] was at most 100 nM each time.

For `CCCN(C)C(=O)c1cncc(-c2ccnc(-c3nc(C)c(C)[nH]3)c2)c1` [Example 210, 2′-(4,5-Dimethyl-1H-imidazol-2-yl)-N-methyl-N-propyl-3,4′-bipyridine-5-carboxamide], the IC50 in experiment [1] is at most 100 nM; in experiment [2], at most 500 nM.

With `CC(=O)N1CC=C(c2ccnc(-c3nc(C)c(C)[nH]3)c2)CC1` [Example 217, 1(4-(2-(4,5-Dimethyl-1H-imidazol-2-yl)pyridin-4-yl)-5,6-dihydropyridin-1(2H)-yl)ethanone trifluoroacetate salt], the IC50 in experiment [1] and in experiment [2] was over 500 nM in each case.

Consider `CC(=O)N1CCC=C(c2ccnc(-c3nc(C)c(C)[nH]3)c2)C1` [Example 219, 1-(3-(2-(4,5-Dimethyl-1H-imidazol-2-yl)pyridin-4-yl)-5,6-dihydropyridin-1(2H)-yl)ethanone trifluoroacetate salt], for which the IC50 in experiment [1] and in experiment [2] was over 500 nM throughout.

With `Cc1nc(-c2cc(C3=CCCN(S(C)(=O)=O)C3)ccn2)[nH]c1C` [Example 220, 2-(4,5-Dimethyl-1H-imidazol-2-yl)-4-(1-(methylsulfonyl)-1,2,5,6-tetrahydropyridin-3-yl)pyridine trifluoroacetate salt], the IC50 in experiment [1] is at most 500 nM; in experiment [2] it was over 500 nM.

On to `Cc1nc(-c2cc(C3=CCCN(C(=O)c4ccccc4)C3)ccn2)[nH]c1C` [Example 222, (3-(2-(4,5-Dimethyl-1H-imidazol-2-yl)pyridin-4-yl)-5,6-dihydropyridin-1(2H)-yl)(phenyl)methanone trifluoroacetate salt], for which the IC50 in experiment [1] and in experiment [2] was over 500 nM in each case.

Consider `Cc1nc(-c2cc(C3=CCCN(Cc4ccccc4)C3)ccn2)[nH]c1C` [Example 223, 4-(1-Benzyl-1,2,5,6-tetrahydropyridin-3-yl)-2-(4,5-dimethyl-1H-imidazol-2-yl)pyridine trifluoroacetate salt], for which the IC50 in experiment [1] and in experiment [2] was over 500 nM each time.

As to `Cc1nc(-c2cc(C3=CCCN(Cc4ccc(Cl)cc4)C3)ccn2)[nH]c1C` [Example 224, 4-(1-(4-Chlorobenzyl)-1,2,5,6-tetrahydropyridin-3-yl)-2-(4,5-dimethyl-1H-imidazol-2-yl)pyridine trifluoroacetate salt], the IC50 in experiment [1] and in experiment [2] was over 500 nM each time.

For `Cc1nc(-c2cc(C3=CCCN(CC4CCOCC4)C3)ccn2)[nH]c1C` [Example 225, 2-(4,5-Dimethyl-1H-imidazol-2-yl)-4-(1-((tetrahydro-2H-pyran-4-yl)methyl)-1,2,5,6-tetrahydropyridin-3-yl)pyridine trifluoroacetate salt], the IC50 in experiment [1] and in experiment [2] was over 500 nM in each case.

Regarding `CC(=O)N1CC=C(c2ccnc(-c3nc(C)c(C)[nH]3)c2)C1` [Example 226, 1-(3-(2-(4,5-Dimethyl-1H-imidazol-2-yl)pyridin-4-yl)-2,5-dihydro-1H-pyrrol-1-yl)ethanone trifluoroacetate salt], the IC50 in experiment [1] and in experiment [2] was over 500 nM each time.

Take `Cc1nc(-c2cc(C3=CCN(S(C)(=O)=O)C3)ccn2)[nH]c1C` [Example 227, 2-(4,5-Dimethyl-1H-imidazol-2-yl)-4-(1-(methylsulfonyl)-2,5-dihydro-1H-pyrrol-3-yl)pyridine trifluoroacetate salt]: the IC50 in experiment [1] and in experiment [2] was over 500 nM in each case.

`Cc1nc(-c2cc(C3=CCN(Cc4ccccc4)C3)ccn2)[nH]c1C` [Example 228, 4-(1-Benzyl-2,5-dihydro-1H-pyrrol-3-yl)-2-(4,5-dimethyl-1H-imidazol-2-yl)pyridine trifluoroacetate salt]: the IC50 in experiment [1] and in experiment [2] was over 500 nM each time.

For the compound `Cc1nc(-c2cc(C3=CCN(Cc4ccc(Cl)cc4)C3)ccn2)[nH]c1C` [Example 229, 4-(1-(4-Chlorobenzyl)-2,5-dihydro-1H-pyrrol-3-yl)-2-(4,5-dimethyl-1H-imidazol-2-yl)pyridine trifluoroacetate salt], the IC50 in experiment [1] and in experiment [2] was over 500 nM each time.

On to `Cc1nc(-c2cc(C3=CCN(CC4CCOCC4)C3)ccn2)[nH]c1C` [Example 230, 2-(4,5-Dimethyl-1H-imidazol-2-yl)-4-(1-((tetrahydro-2H-pyran-4-yl)methyl)-2,5-dihydro-1H-pyrrol-3-yl)pyridine trifluoroacetate salt], for which the IC50 in experiment [1] and in experiment [2] was over 500 nM each time.
